≈ marks a conversion by molar mass, not a printed value. Where a name gives a salt, the structure may show the parent alone.
How the values were obtained:
[1] = tested on: Enterococcus faecium VRQR (vancomycin resistant, quinolone resistant); test: MIC, agar dilution method; assay type: cell-based; details: Mueller-Hinton agar with 5% defibrinated horse blood, 5% CO2, 24 hours
Method: (§1) The following in vitro results were obtained based on an agar dilution method except for C. pneumoniae. The activity is presented as the minimum inhibitory concentration (MIC).
(§2) Streptococci and enterococci were tested on Mueller-Hinton agar supplemented with 5% defibrinated horse blood, using an approximate inoculum of 1×10^4 cfu/spot an incubation temperature of 35° C. in an atmosphere of 5% CO2 for 24 hours. The MIC was defined as the lowest concentration at which no visible bacterial growth was observed.

[2] = tested on: Streptococcus pneumoniae IID553; test: MIC, agar dilution method; assay type: cell-based; details: Mueller-Hinton agar with 5% defibrinated horse blood, 5% CO2, 24 hours
Method: as §1, §2

[3] = tested on: Streptococcus pneumoniae PRQR (penicillin resistant, quinolone resistant); test: MIC, agar dilution method; assay type: cell-based; details: Mueller-Hinton agar with 5% defibrinated horse blood, 5% CO2, 24 hours
Method: as §1, §2

[4] = tested on: Streptococcus pyogenes IID692; test: MIC, agar dilution method; assay type: cell-based; details: Mueller-Hinton agar with 5% defibrinated horse blood, 5% CO2, 24 hours
Method: as §1, §2

[5] = tested on: Staphylococcus aureus CR (chloramphenicol resistant); test: MIC, agar dilution method; assay type: cell-based; details: Mueller-Hinton agar, 35 C, 24 hours
Method: as §1
(§3) S. aureus and M. catarrhalis were tested on Mueller-Hinton agar, using an approximate inoculum of 1×10^4 cfu/spot an incubation temperature of 35 C. for 24 hours. The MIC was defined as the lowest concentration at which no visible bacterial growth was observed.

[6] = tested on: Staphylococcus aureus MR (methicillin resistant); test: MIC, agar dilution method; assay type: cell-based; details: Mueller-Hinton agar, 35 C, 24 hours
Method: as §1, §3

[7] = tested on: Staphylococcus aureus Smith; test: MIC, agar dilution method; assay type: cell-based; details: Mueller-Hinton agar, 35 C, 24 hours
Method: as §1, §3

[8] = tested on: Chlamydia pneumoniae ATCC VR-1360; test: MIC, inclusion formation in infected HeLa 229 cells; assay type: cell-based; details: ATCCVR1360, 72 hours, lowest concentration with no inclusion
Method: as §1
C. pneumoniae was tested using minimum essential medium supplemented with 10% heat-inactivated fetal bovine serum, 2 mM L-glutamine, […] cycloheximide and non essential amino acid. HeLa 229 cells were inoculated with 10^4 inclusion-forming units of C. pneumoniae strain per mL. Infected cells were incubated with test compounds in complete medium at 35C in an atmosphere of 5% CO2 for 72 hours. […] The MIC was defined as the lowest concentration at which no inclusion was observed.

[9] = tested on: Moraxella catarrhalis ATCC25238; test: MIC, agar dilution method; assay type: cell-based; details: Mueller-Hinton agar, 35 C, 24 hours
Method: as §1, §3

`CC(=O)NC[C@H]1CN(c2ccc(C3=C[C@@H]4[C@@H](N)[C@@H]4C3)c(F)c2)C(=O)O1` (as salt: hydrochloride) [Example 50, N-[5(S)-3-[4-[(1α,5α,6α)-6-Aminobicyclo[3.1.0]hex-2-en-3-yl]-3-fluorophenyl]-2-oxooxazolidin-5-ylmethyl]acetamide Hydrochloride] showed a melting point of 215 to 220 °C.

`CC(=O)NC[C@H]1CN(c2ccc(N3C[C@@H]4[C@@H](N)[C@@H]4C3)c(F)c2)C(=O)O1` [Example 8, N-[5(S)-3-[4-[(1α,5α,6α)-6-Amino-3-azabicyclo[3.1.0]hexan-3-yl]-3-fluorophenyl]-2-oxooxazolidin-5-ylmethyl]acetamide] gave an MIC [1] of 2 µg/mL (≈ 5.74 µM), an MIC [2] of 1 µg/mL (≈ 2.87 µM) and an MIC [3] of 1 µg/mL (≈ 2.87 µM). The MIC [4] was 0.5 µg/mL (≈ 1.44 µM), the MIC [5] was 4 µg/mL (≈ 11.5 µM) and the MIC [6] was 1 µg/mL (≈ 2.87 µM). It also gave an MIC [7] of 0.5 µg/mL (≈ 1.44 µM) and an MIC [8] of 0.5 µg/mL (≈ 1.44 µM).

`CC(=O)NC[C@H]1CN(c2ccc(N3C[C@@H]4[C@@H](C=O)[C@@H]4C3)c(F)c2)C(=O)O1` [Example 22, N-[5(S)-3-[3-Fluoro-4-[(1α,5α,6α)-6-formyl-3-azabicyclo[3.1.0]hexan-3-yl]phenyl]-2-oxooxazolidin-5-ylmethyl]acetamide] showed an MIC [1] of 0.5 µg/mL (≈ 1.38 µM), an MIC [2] of 0.5 µg/mL (≈ 1.38 µM) and an MIC [3] of 0.5 µg/mL (≈ 1.38 µM). For the same molecule, the MIC [4] was 0.5 µg/mL (≈ 1.38 µM), the MIC [9] was 2 µg/mL (≈ 5.53 µM) and the MIC [5] was 0.5 µg/mL (≈ 1.38 µM). The MIC [6] was 0.016 µg/mL (≈ 0.0443 µM) and the MIC [7] was 0.06 µg/mL (≈ 0.166 µM).

For `CC(=O)NC[C@H]1CN(c2ccc(N3C[C@@H]4[C@@H](/C=N/O)[C@@H]4C3)c(F)c2)C(=O)O1` [Example 41, (E)-N-[5(S)-3-[3-Fluoro-4-[(1α,5α,6α)-6-[(hydroxyimino)methyl]-3-azabicyclo[3.1.0]hexan-3-yl]phenyl]-2-oxooxazolidin-5-ylmethyl]acetamide], the MIC [1] was 0.5 µg/mL (≈ 1.33 µM), the MIC [2] was 0.5 µg/mL (≈ 1.33 µM) and the MIC [3] was 0.5 µg/mL (≈ 1.33 µM). The MIC [4] was 0.5 µg/mL (≈ 1.33 µM), the MIC [9] was 4 µg/mL (≈ 10.6 µM) and the MIC [5] was 0.5 µg/mL (≈ 1.33 µM). The MIC [6] was 0.06 µg/mL (≈ 0.159 µM) and the MIC [7] was 0.06 µg/mL (≈ 0.159 µM).

`CC(=O)NC[C@H]1CN(c2ccc(N3C[C@@H]4[C@@H](C#N)[C@@H]4C3)c(F)c2)C(=O)O1` [Example 46, N-[5(S)-3-[4-[(1α,5α,6α)-6-Cyano-3-azabicyclo[3.1.0]hexan-3-yl]-3-fluorophenyl]-2-oxooxazolidin-5-ylmethyl]acetamide] showed an MIC [1] of 0.5 µg/mL (≈ 1.4 µM), an MIC [2] of 0.5 µg/mL (≈ 1.4 µM) and an MIC [3] of 0.25 µg/mL (≈ 0.698 µM). It also gave an MIC [4] of 0.25 µg/mL (≈ 0.698 µM), an MIC [9] of 2 µg/mL (≈ 5.58 µM) and an MIC [5] of 1 µg/mL (≈ 2.79 µM). It also gave an MIC [6] of 0.25 µg/mL (≈ 0.698 µM) and an MIC [7] of 0.25 µg/mL (≈ 0.698 µM).

For `CC(=O)NC[C@H]1CN(c2ccc(N3CCOCC3)c(F)c2)C(=O)O1` [Linezolid, reference compound], the MIC [1] was 2 µg/mL (≈ 5.93 µM), the MIC [2] was 2 µg/mL (≈ 5.93 µM) and the MIC [3] was 1 µg/mL (≈ 2.96 µM). It also gave an MIC [4] of 1 µg/mL (≈ 2.96 µM), an MIC [9] of 4 µg/mL (≈ 11.9 µM) and an MIC [5] of 16 µg/mL (≈ 47.4 µM). It also gave an MIC [6] of 1 µg/mL (≈ 2.96 µM), an MIC [7] of 1 µg/mL (≈ 2.96 µM) and an MIC [8] of 8 µg/mL (≈ 23.7 µM).

— patent US6897230B2, “Bicyclo[3/1/0] hexane containing oxazolidinone antibiotics and derivatives thereof” (Kyorin Pharmaceutical Co., Ltd., priority 2001, dated 2005)
